One data set concerns HSC-4 cells. The data set is described as follows: Cytotoxicity against HSC-4 cells, MTT method, 48 h. The data set is classed as cell-based, human. Conditions: for CC50: Homo sapiens, HSC-4, concentration required to kill 50% of the cells, 48 h, MTT, read-out: CC50 HSC-4; for SI HSC-4: average CC50 towards HGF, HPLF, HPC divided by CC50 against HSC-4. On the procedure: (§1) A literature procedure was followed when the compounds in series 3 and 4 were evaluated against three human oral squamous cell carcinoma cell lines Ca9-22 (RCB-1976), HSC-2 (RCB1945), HSC-4 (RCB1902) (purchased from RIKEN Cell Bank, Tukuba, Japan) and three human normal oral cells, gingival fibroblast (HGF), periodontal ligament fibroblast (HPLF) and pulp cells (HPC) (established according to the guideline of the intramural ethic committee, A0808) except the duration of incubation was increased from 24 h to 48 h. In brief, various concentrations of the compounds were added to the DMEM media, which was supplemented by 10% heat-inactivated fetal bovine serum. Incubation was undertaken at 37 °C. At the completion of the experiment, cell viability was determined by the MTT method.
Background: Formazan colour is commonly taken as a measure of viable cells.

Data set [1] is described as follows: Cytotoxicity against non-malignant HPC cells, MTT method, 48 h. The data set is classed as cell-based. Conditions: human, pulp cells (HPC). On the procedure: as §1
Data set [2] can be described thus: Average over HGF, HPLF and HPC non-malignant cells. Conditions: human, HPLF and HPC non-malignant cells (average of the three). Type of data set: cell-based. As to the method:
as §1

Another data set concerns HSC-2 cells. The data set is described as follows: Cytotoxicity against HSC-2 cells, MTT method, 48 h. The data set is classed as cell-based, human. Conditions: for CC50: Homo sapiens, HSC-2, concentration required to kill 50% of the cells, 48 h, MTT; for SI HSC-2: average CC50 towards HGF, HPLF, HPC divided by CC50 against HSC-2. On the procedure:
as §1

The nature of data set [3]: Cytotoxicity against non-malignant HGF cells, MTT method, 48 h. Type of data set: cell-based. Conditions: human, gingival fibroblasts (HGF). On the procedure:
as §1

The subject of another data set is Ca9-22 cells. The data set is described as follows: Cytotoxicity against Ca9-22 cells, MTT method, 48 h. Type of data set: cell-based, human. Conditions: for CC50: Homo sapiens, Ca9-22, concentration required to kill 50% of the cells, 48 h, MTT, read-out: CC50 Ca9-22; for SI Ca9-22: average CC50 towards HGF, HPLF, HPC divided by CC50 against Ca9-22. On the procedure: as §1

In data set [4] the test system is CEM T-lymphoblastic leukemia cells. The experiment in a line: Cytotoxicity against CEM cells, MTT method, 24 h. Type of data set: cell-based. The note with it: Homo sapiens, CCRF-CEM, concentration required to inhibit cell growth by 50%. As to the method:
The method used for the evaluation of various compounds against human CEM cells has been reported previously. In brief, cells were grown in RPMI-1640 medium supplemented with 10% heat-inactivated fetal bovine serum. Different concentrations of compounds were added to the media, and after 24 h incubation, cytotoxicity was measured by the MTT method.

Data set [5] relates to Ca9-22, HSC-2 and HSC-4 cells. The experiment in a line: Average over Ca9-22, HSC-2 and HSC-4 neoplastic cells. The data set is classed as cell-based, human. The note with it: for CC50: Homo sapiens, average of Ca9-22, HSC-2 and HSC-4, read-out: Average CC50; for Average SI: average of SI for Ca9-22, HSC-2 and HSC-4. As to the method:
In order to assess whether the compounds in series 3 and 4 are more toxic to neoplasms than non-malignant cells, selective index (SI) figures were calculated. In the in vivo situation, a tumour is surrounded by a number of non-malignant cells.
In order to identify the most promising lead compounds in terms of both cytotoxic potencies and favourable SI values, potency–selectivity expression (PSE) values were computed. […] Outstanding results may be noted for four compounds that have PSE values in excess of 100,000 namely 3d, 4c–e. […] However, the relative SI/PSE distribution patterns between series 3 and 4 (from a to h) are nearly superimposable with each other (Figure 3). […] It has been reported that 3,5-bis(3-iodo-5-methoxy-4-propoxybenzylidene)-N-acetylpiperidin-4-one inhibited tubulin and destabilization of microtubules, while 3,5-bis(3,4,5-trimethoxybenzylidene)-N-benzoylpiperidin-4-one destabilizes the microtubules. Thus, it remained to investigate whether compound 4d acts as an inhibitor of the microtubule.
as §1

Data set [6] in a line: Cytotoxicity against non-malignant HPLF cells, MTT method, 48 h. Type of data set: cell-based. Conditions: human, periodontal ligament fibroblasts (HPLF). As to the method:
as §1

What is called CC50 is the concentration giving 50% cytotoxicity. A word on the IC50: it is the point on the concentration scale where inhibition reaches its midpoint. Low values mean greater potency in that assay, high ones weaker potency in that assay. Regarding `COc1cc(/C=C2\CN(C(=O)CC[N+]3(C)CCC(=NO)CC3)C/C(=C\c3cc(OC)c(OC)c(OC)c3)C2=O)cc(OC)c1OC` (centres unmarked) [Compound 4h, (3~{E},5~{E})-1-[3-(4-hydroximino-1-piperidyl)propanoyl]-3,5-bis[(3,4,5-trimethoxyphenyl)methylene]piperidin-4-one methiodide], the CC50 stood at 0.18 ± 0.04 µM in the data set with HSC-4 cells, 0.22 ± 0.04 µM in the data set on HSC-2 cells, 0.07 ± 0.01 µM in the data set with Ca9-22 cells and 0.16 µM in data set [5]. Besides, the “SI HSC-4” value in the data set on HSC-4 cells came out at 7.94. Also, the CC50 at 48 h in [1] came out at 2.35 ± 0.82 µM; in [2], 1.43 µM; in [3], 0.62 ± 0.06 µM; in data set [6], 1.32 ± 0.04 µM. Moreover, in the data set with HSC-2 cells, the “SI HSC-2” value was found to be 6.50. Moreover, in the data set on Ca9-22 cells, the “SI Ca9-22” value is recorded as 20.4. In data set [4], this compound displayed a half-inhibitory concentration (IC50) of 5.12 ± 0.14 µM. In addition, the “Average SI” value in data set [5] is given as 11.6.
As to `COc1cccc2c1C(=O)c1c(O)c3c(c(O)c1C2=O)C[C@@](O)(C(=O)CO)C[C@@H]3O[C@H]1C[C@H](N)[C@H](O)[C@H](C)O1` [Doxorubicin, reference compound], the CC50 in the data set with HSC-4 cells is 0.15 ± 0.05 µM; in the data set with HSC-2 cells it was 0.11 ± 0.01 µM; in the data set with Ca9-22 cells, 0.47 ± 0.12 µM; in data set [5], 0.24 µM. In addition, the “SI HSC-4” value with HSC-4 cells is 48.7. Also, the CC50 at 48 h came to 8.77 ± 2.14 µM in [1], 7.31 µM in [2], 3.44 ± 0.53 µM in data set [3] and 9.73 ± 0.47 µM in data set [6]. Moreover, the “SI HSC-2” value with HSC-2 cells is 66.5. The “SI Ca9-22” value in the data set with Ca9-22 cells amounted to 15.6. The “Average SI” value in data set [5] was 43.6.
For the compound `Cc1ccc(/C=C2\CN(C(=O)CC[N+]3(C)CCC(=NO)CC3)C/C(=C\c3ccc(C)cc3)C2=O)cc1` (centres unmarked) [Compound 4f, (3~{E},5~{E})-3,5-bis[(4-methylphenyl)methylene]-1-[3-(4-hydroximino-1-piperidyl)propanoyl]piperidin-4-one methiodide], the half-maximal cytotoxic concentration (CC50) in the data set with HSC-4 cells worked out at 0.4 ± 0.23 µM; with HSC-2 cells it was 0.46 ± 0.1 µM; in the data set with Ca9-22 cells, 0.18 ± 0.02 µM; in [5], 0.35 µM. Also, in the data set with HSC-4 cells, the “SI HSC-4” value is recorded as 23.9. The CC50 at 48 h in [1] worked out at 15.2 ± 1.9 µM; in data set [2], 9.56 µM; in [3], 5.12 ± 0.24 µM; in data set [6], 8.37 ± 0.81 µM. Moreover, the “SI HSC-2” value in the data set with HSC-2 cells amounted to 20.8. Moreover, the “SI Ca9-22” value with Ca9-22 cells is 53.1. The compound further returned an IC50 in [4] of 4.18 ± 0.65 µM. In addition, in data set [5], the “Average SI” value came to 32.6.
Turning to `COc1ccc(/C=C2\CN(C(=O)CC[N+]3(C)CCC(=NO)CC3)C/C(=C\c3ccc(OC)cc3)C2=O)cc1` (centres unmarked) [Compound 4g, (3~{E},5~{E})-3,5-bis[(4-methoxyphenyl)methylene]-1-[3-(4-hydroximino-1-piperidyl)propanoyl]piperidin-4-one methiodide], the CC50 in the data set on HSC-4 cells is 0.66 ± 0.05 µM; in the data set on HSC-2 cells, 0.68 ± 0.04 µM; in the data set with Ca9-22 cells, 0.31 ± 0.17 µM; in data set [5], 0.55 µM. Moreover, the “SI HSC-4” value in the data set with HSC-4 cells is recorded as 19.2. The CC50 at 48 h in data set [1] came out at 15.6 ± 3.16 µM; in [2] it was 12.7 µM; in [3], 6.3 ± 0.27 µM; in [6], 16.2 ± 4.05 µM. In addition, the “SI HSC-2” value with HSC-2 cells was determined as 18.7. Also, the “SI Ca9-22” value with Ca9-22 cells is listed as 41.0. In addition, in [4], the IC50 is 13 ± 0.95 µM. Moreover, in [5], the “Average SI” value is on record as 26.3.
Turning to `C[N+]1(CCC(=O)N2C/C(=C\c3ccc([N+](=O)[O-])cc3)C(=O)/C(=C/c3ccc([N+](=O)[O-])cc3)C2)CCC(=NO)CC1` (centres unmarked) [Compound 4e, (3~{E},5~{E})-1-[3-(4-hydroximino-1-piperidyl)propanoyl]-3,5-bis[(4-nitrophenyl)methylene]piperidin-4-one methiodide], the CC50 came to 0.06 ± 0.01 µM with HSC-4 cells, 0.05 ± 0.01 µM in the data set on HSC-2 cells, 0.02 µM in the data set with Ca9-22 cells and 0.04 µM in data set [5]. The “SI HSC-4” value with HSC-4 cells is 34.5. Moreover, the CC50 at 48 h in [1] was found to be 2.46 ± 1.23 µM; in [2] it was 2.07 µM; in data set [3], 1.15 ± 0.35 µM; in data set [6] it was 2.59 ± 0.27 µM. In addition, the “SI HSC-2” value with HSC-2 cells was 41.4. For the same compound, the “SI Ca9-22” value in the data set with Ca9-22 cells is recorded as 104. This compound registered an IC50 in data set [4] of 0.87 ± 0.02 µM. In addition, the “Average SI” value in [5] was 60.0.
For the compound `O=C1/C(=C/c2ccc(O)cc2)CN(C(=O)CCN2CCC(=NO)CC2)C/C1=C\c1ccc(O)cc1` [Compound 3i, (3~{E},5~{E})-3,5-bis[(4-hydroxyphenyl)methylene]-1-[3-(4-hydroximino-1-piperidyl)propanoyl]piperidin-4-one], the CC50 in the data set on HSC-4 cells was determined as 19.3 ± 1.61 µM; in the data set with HSC-2 cells it was 18 ± 2.06 µM; in the data set on Ca9-22 cells, 16.5 ± 2.35 µM; in data set [5], 17.9 µM. Also, in the data set with HSC-4 cells, the “SI HSC-4” value is on record as 4.36. Moreover, the CC50 at 48 h was 99.3 ± 1.16 µM in data set [1], 84.2 µM in [2], 64.9 ± 5.66 µM in data set [3] and 88.3 ± 4.56 µM in [6]. In the data set on HSC-2 cells, the “SI HSC-2” value is recorded as 4.68. In the data set with Ca9-22 cells, the “SI Ca9-22” value was 5.10. Half-maximal inhibition in data set [4] (IC50) required 11.1 ± 1.01 µM. Besides, in [5], the “Average SI” value came to 4.71.
